What follows are compounds tested on bacterial strain LF82 binding to the glycoprotein BSA-(Mannose)3 (FimH antagonists) (assay: Bacterial Binding Assay (BBA)). Conditions: read-out: Bacterial Binding Assay IC50 ± SEM.
Assay type: cell-based, Escherichia coli
From the text: The purpose of the Bacterial Binding Assay (BBA) is to determine the inhibition activity of selective FimH antagonists on the bacterial strain LF82 binding to the glycoprotein BSA-(Mannose)3.
Below is a list of the Materials used to run the BBA are described below. • 1. LB broth: Supplier: Gibco, #10855 • 2. D-PBS: Supplier: Wisent, #311-425-CL • 3. LB agar plates • 4. 96-well black plate (high binding): Supplier: Costar, #3925 • 5. TopSeal™-A adhesive sealing films; Supplier PerkinElmer, #6005185 • 6. Carbonate-bicarbonate buffer pH 9.6 tablets, Supplier: Medicago, #09-8922-24 • 7. Water, Supplier: Gibco, #15230-162 • 8. Bovine serum albumin (BSA): Supplier: Sigma, #A-7888 • 9. (Man)3-BSA (α1-3, α1-6 Mannotriose-BSA, 1 mg), V-Labs, #NGP1336, lot# HGDX37-169-1 • 10. Tween 20: Supplier: Sigma, #P9416 • 11. Bright-Glo Luciferase Assay System: Supplier: Promega, #E2610 • 12. LF82/Luciferase strain: Invasive ability of an Escherichia coli strain isolated from the ileal mucosa of a patient with Crohn's disease. Boudeau J, Glasser A L, Masseret E, Joly B, Darfeuille-Michaud A, Infect Immun. 1999, 67(9), 4499-509
Solutions and buffers used to run the BBA are described below. • 1. 0.04M carbonate-bicarbonate buffer (coating buffer) • 2. 40 μg/mL BSA-(Man)3: Dissolve 1 mg of (Man)3-BSA in 25 mL of water. • 3. 4000 μg/mL BSA • 4. 40 μg/mL BSA • 5. 1 μg/mL BSA-(Man)3: 150 μL of 40 μg/mL BSA-(Man)3+5.85 mL of 40 μg/mL BSA • 6. 0.5 μg/mL BSA-(Man)3 in 0.02M carbonate-bicarbonate buffer. • 7. 20 μg/mL BSA in 0.02M carbonate-bicarbonate buffer • 8. Blocking buffer (2% BSA/DPBS): 1 g of BSA in 50 mL D-PBS • 9. 2× binding buffer (0.2% BSA/D-PBS): 5 mL of blocking buffer+45 mL D-PBS. • 10. Washing buffer (D-PBS/0.01% Tween 20): 10 μL of Tween 20 in 100 mL D-PBS. • 11. 1× Bright-Glo Luciferase substrate: Dilute 1:1 the Bright-Glo Luciferase Assay System with D-PBS
The experimental protocol used in this example to run the BBA is described below.
Overnight culture of LF82/Luciferase strain: Into two Falcon 50 mL tubes, add 20 mL of LB+20 μL of 50 mg/mL Kanamycin and inoculate with a loop from glycerol stock of the LF82/Luciferase strain. Incubate overnight at 37° C. with no shaking.
Glycoprotein coating of 96-well plates: Add 100 μL/well of 0.5-2 μg/mL BSA-(Man)3. 20 μg/mL BSA is used as the control background. Seal plate using an adhesive sealing film and incubate overnight at room temperature. Wash the 96-well plate three times with 150 μL/well of D-PBS, add 170 μL/well of blocking solution and incubate 45 min (minimum) at room temperature.
Preparation of bacterial suspension: Mix the two cultures tubes (40 mL) and perform a 1:10 dilution in LB (900 μl LB+100 μl culture. Measure optical density (OD) of the bacterial cultures. OD1 ˜5×10^8 cells/mL. Centrifuge LF82 culture for 20 min at 3500 rpm at room temperature. Re-suspend bacterial pellet in D-PBS and centrifuge again for 20 min at 3500 rpm. Re-suspend bacterial pellet in D-PBS to obtain a bacterial concentration of 2×10^9 bacteria/mL. Dilute 1/10 in D-PBS to obtain a final bacterial concentration of 2×10^8 bacteria/mL (=107 bacteria/50 μL). Perform 1/10 serial dilutions in LB of each bacterial suspension, plate 10 μL of dilutions on LB agar plates (final dilutions of 10^−7) and incubate overnight at 37° C. and count CFUs to determine the actual bacteria density in the assay.
Bacterial binding assay: Add 147 μL 2× binding buffer to compound plate (containing 3 μL of compound). After blocking step is performed (at least 45 min), wash plates three times with 200 μL/well of D-PBS. With a 100 μL multichannel manual pipettor, add 50 μL/well of compound diluted in 2× binding buffer. With a 100 μL multichannel manual pipettor, add 50 μL/well of bacterial suspension. Agitate at slow speed for 1 min and incubate 40-75 min at room temperature. Wash 5 times with 150 μL/well of washing buffer and then once with D-PBS. Add 100 μL/well of 1× Bright-Glo Luciferase substrate. […]

Compound | IC50 [nM]
Cc1cc(-c2cc(C#C[C@H]3O[C@H](CO)[C@@H](O)[C@H](O)[C@@H]3O)c3[nH]ncc3c2)cc(C)n1 [Compound 83, (2R,3S,4R,5S,6R)-2-[2-[5-(2,6-dimethyl-4-pyridyl)-1H-indazol-7-yl]ethynyl]-6-(hydroxymethyl)tetrahydropyran-3,4,5-triol] | 0.7 ± 0.5
O=S1(=O)CCN(CC#Cc2cc(C#C[C@H]3O[C@H](CO)[C@@H](O)[C@H](O)[C@@H]3O)c3[nH]ncc3c2)CC1 [Compound 49, (2R,3S,4R,5S,6R)-2-[2-[5-[3-(1,1-dioxo-1,4-thiazinan-4-yl)prop-1-ynyl]-1H-indazol-7-yl]ethynyl]-6-(hydroxymethyl)tetrahydropyran-3,4,5-triol] | 26 ± 0.5
OC[C@H]1O[C@H](C#Cc2cc(C#Cc3ccccc3)cc3cn[nH]c23)[C@@H](O)[C@@H](O)[C@@H]1O [Compound 45, (2R,3S,4R,5S,6R)-2-(hydroxymethyl)-6-[2-[5-(2-phenylethynyl)-1H-indazol-7-yl]ethynyl]tetrahydropyran-3,4,5-triol] | 15 ± 3
Cc1ccc(-c2cc(C#C[C@H]3O[C@H](CO)[C@@H](O)[C@H](O)[C@@H]3O)c3[nH]ncc3c2)c(C)c1 [Compound 88, (2R,3S,4R,5S,6R)-2-[2-[5-(2,4-dimethylphenyl)-1H-indazol-7-yl]ethynyl]-6-(hydroxymethyl)tetrahydropyran-3,4,5-triol] | 2
CCCN(C)C(=O)c1cc(C#C[C@H]2O[C@H](CO)[C@@H](O)[C@H](O)[C@@H]2O)c2[nH]ncc2c1 [Compound 65, N-methyl-N-propyl-7-[2-[(2R,3S,4R,5S,6R)-3,4,5-trihydroxy-6-(hydroxymethyl)tetrahydropyran-2-yl]ethynyl]-1H-indazole-5-carboxamide] | 0.8 ± 0.1
OC[C@H]1O[C@H](C#Cc2cc(Cl)cc3cn[nH]c23)[C@@H](O)[C@@H](O)[C@@H]1O [Compound 6, (2R,3S,4R,5S,6R)-2-[2-(5-chloro-1H-indazol-7-yl)ethynyl]-6-(hydroxymethyl)tetrahydropyran-3,4,5-triol] | 24 ± 5
OC[C@H]1O[C@H](C#Cc2cccc3[nH]ncc23)[C@@H](O)[C@@H](O)[C@@H]1O [Compound 3, (2R,3S,4R,5S,6R)-2-(hydroxymethyl)-6-[2-(1H-indazol-4-yl)ethynyl]tetrahydropyran-3,4,5-triol] | 110 ± 10
Cc1cc(-c2cc(C#C[C@H]3O[C@H](CO)[C@@H](O)[C@H](O)[C@@H]3O)c3[nH]ncc3c2)ccn1 [Compound 84, (2R,3S,4R,5S,6R)-2-(hydroxymethyl)-6-[2-[5-(2-methyl-4-pyridyl)-1H-indazol-7-yl]ethynyl]tetrahydropyran-3,4,5-triol] | 0.5 ± 0.2
NC(=O)c1cccc(-c2cc(C#C[C@H]3O[C@H](CO)[C@@H](O)[C@H](O)[C@@H]3O)c3[nH]ncc3c2)c1 [Compound 31, 3-[7-[2-[(2R,3S,4R,5S,6R)-3,4,5-trihydroxy-6-(hydroxymethyl)tetrahydropyran-2-yl]ethynyl]-1H-indazol-5-yl]benzamide] | 0.7 ± 0.01
CN(C)C(=O)c1cc(C#C[C@H]2O[C@H](CO)[C@@H](O)[C@H](O)[C@@H]2O)c2[nH]ncc2c1 [Compound 59, N,N-dimethyl-7-[2-[(2R,3S,4R,5S,6R)-3,4,5-trihydroxy-6-(hydroxymethyl)tetrahydropyran-2-yl]ethynyl]-1H-indazole-5-carboxamide] | 0.4 ± 0.2
COC(=O)c1cc(C#C[C@H]2O[C@H](CO)[C@@H](O)[C@H](O)[C@@H]2O)c2[nH]ncc2c1 [Compound 57, Methyl 7-[2-[(2R,3S,4R,5S,6R)-3,4,5-trihydroxy-6-(hydroxymethyl)tetrahydropyran-2-yl]ethynyl]-1H-indazole-5-carboxylate] | 2 ± 0.6
OC[C@H]1O[C@H](C#Cc2cc(C#Cc3cccnc3)cc3cn[nH]c23)[C@@H](O)[C@@H](O)[C@@H]1O [Compound 46, (2R,3S,4R,5S,6R)-2-(hydroxymethyl)-6-[2-[5-[2-(3-pyridyl)ethynyl]-1H-indazol-7-yl]ethynyl]tetrahydropyran-3,4,5-triol] | 3 ± 1
CS(=O)(=O)c1ccc(-c2cc(C#C[C@H]3O[C@H](CO)[C@@H](O)[C@H](O)[C@@H]3O)c3[nH]ncc3c2)cc1 [Compound 35, (2R,3S,4R,5S,6R)-2-(hydroxymethyl)-6-[2-[5-(4-methylsulfonylphenyl)-1H-indazol-7-yl]ethynyl]tetrahydropyran-3,4,5-triol] | 0.5 ± 0.1
COc1ccc(-c2cc(C#C[C@H]3O[C@H](CO)[C@@H](O)[C@H](O)[C@@H]3O)c3[nH]ncc3c2)cn1 [Compound 73, (2R,3S,4R,5S,6R)-2-(hydroxymethyl)-6-[2-[5-(6-methoxy-3-pyridyl)-1H-indazol-7-yl]ethynyl]tetrahydropyran-3,4,5-triol] | 0.5 ± 0.09
OC[C@H]1O[C@H](C#Cc2cc(-n3cc(-c4ccccc4)nn3)cc3cn[nH]c23)[C@@H](O)[C@@H](O)[C@@H]1O [Compound 66, (2R,3S,4R,5S,6R)-2-(hydroxymethyl)-6-[2-[5-(4-phenyltriazol-1-yl)-1H-indazol-7-yl]ethynyl]tetrahydropyran-3,4,5-triol] | 2
CCOC(=O)C1CC=C(c2cc(C#C[C@H]3O[C@H](CO)[C@@H](O)[C@H](O)[C@@H]3O)c3[nH]ncc3c2)CC1 (stereo partly drawn) [Compound 71, ethyl 4-[7-[2-[(2R,3S,4R,5S,6R)-3,4,5-trihydroxy-6-(hydroxymethyl)tetrahydropyran-2-yl]ethynyl]-1H-indazol-5-yl]cyclohex-3-ene-1-carboxylate] | 0.6 ± 0.2
OC[C@H]1O[C@H](C#Cc2cc(-c3ccccc3)cc3cn[nH]c23)[C@@H](O)[C@@H](O)[C@@H]1O [Compound 25, (2R,3S,4R,5S,6R)-2-(hydroxymethyl)-6-[2-(5-phenyl-1H-indazol-7-yl)ethynyl]tetrahydropyran-3,4,5-triol] | 0.4 ± 0.04
OCC#Cc1cc(C#C[C@H]2O[C@H](CO)[C@@H](O)[C@H](O)[C@@H]2O)c2[nH]ncc2c1 [Compound 48, (2R,3S,4R,5S,6R)-2-(hydroxymethyl)-6-[2-[5-(3-hydroxyprop-1-ynyl)-1H-indazol-7-yl]ethynyl]tetrahydropyran-3,4,5-triol] | 9 ± 0.7
OC[C@H]1O[C@H](C#Cc2cc(-c3ccc4cc[nH]c4c3)cc3cn[nH]c23)[C@@H](O)[C@@H](O)[C@@H]1O [Compound 40, (2R,3S,4R,5S,6R)-2-(hydroxymethyl)-6-[2-[5-(1H-indol-6-yl)-1H-indazol-7-yl]ethynyl]tetrahydropyran-3,4,5-triol] | 1 ± 0.3
OC[C@H]1O[C@H](C#Cc2cc(Br)cc3cn[nH]c23)[C@@H](O)[C@@H](O)[C@@H]1O [Compound 16, (2R,3S,4R,5S,6R)-2-[2-(5-bromo-1H-indazol-7-yl)ethynyl]-6-(hydroxymethyl)tetrahydropyran-3,4,5-triol] | 8 ± 1
